The record followed here is US4843161A, “Platinum-intercalative complexes for the treatment of cancer” (Massachusetts Institute of Technology, priority 1984, dated 1989).

Each structure is given as a SMILES string.

One assay has as its system L1210/0. Nature of the assay: antitumor activity in mice implanted intraperitoneally with L1210 (Table II). The class given is in vivo. The arrangement: Mean: unit not given beside the values. The settings on record: d 1, 5, 9, 13. As to the method: The optimal dose is 15 mg/kg giving a %ILS of 51% versus control mice implanted with L1210 but not treated with the drug.

The subject of the next assay is L1210/PDD. Nature of the assay: antitumor activity in mice implanted with a tumor cell line resistant to cisDDP (Table III). The settings on record: q4d × 4. The class given is in vivo.

Turning to `N.N.[Cl][Pt][Cl]` [CisDDP, cis-diamminedichloroplatinum (II)], the increase in lifespan (ILS) (in general, the gain in survival time of treated over control animals, in per cent) in the assay on L1210/0 (first L1210/0 group, dose 3) stood at 34%; with L1210/0 (second L1210/0 group, dose 2.0) it was 26%; with L1210/0 (second L1210/0 group, dose 3.0) it was 51%; in the assay with L1210/0 (second L1210/0 group, dose 4.5), 113%; in the assay with L1210/PDD (dose 2.0), 0%; in the assay with L1210/PDD (dose 3.0) it was 0%. This compound came in with an ILS with L1210/PDD (dose 4.5) of 0%. The Mean is 11.9 in the assay with L1210/0 (first L1210/0 group, dose 3); 11.6 with L1210/0 (second L1210/0 group, dose 2.0); 13.9 in the assay with L1210/0 (second L1210/0 group, dose 3.0); 19.6 with L1210/0 (second L1210/0 group, dose 4.5); 11.0 with L1210/PDD (dose 2.0); 10.8 with L1210/PDD (dose 3.0). Further, in the assay with L1210/PDD (dose 4.5), the Mean is reported as 11.0.
